From ChEMBL document CHEMBL4834397 (J Med Chem, 2021)
Values after ≈ are worked out from the molar mass of the structure shown. Values belong to the molecule of their own block, whether it stands above or below them.

Legend:
[1] = Solubility of compound in aqueous buffer at pH 6.8 by HPLC analysis; assay type: physicochemical
[2] = Half life in rat liver microsomes in presence of NADPH; assay type: ADME, Microsome
[3] = target: Voltage-gated inwardly rectifying potassium channel KCNH2 (Homo sapiens, UniProt Q12809); test: Displacement of [3H]dofetilide from recombinant human ERG stably expressed in HEK293 cell membranes measured after 90 mins by microbeta liquid scintillation counting method; set-up: species or system Cell membrane
Cytochrome P450 2C9 = Cytochrome P450 2C9 (Homo sapiens, UniProt P11712); test: Reversible inhibition of CYP2C9 in human liver microsomes using […] as substrate incubated for 10 mins in presence of NADPH by LC-MS analysis; assay type: ADME
Cytochrome P450 2D6 = Cytochrome P450 2D6 (Homo sapiens, UniProt P10635); test: Reversible inhibition of CYP2D6 in human liver microsomes using […] as substrate incubated for 10 mins in presence of NADPH by LC-MS analysis; assay type: ADME
Cytochrome P450 3A5 = Cytochrome P450 3A5 (Homo sapiens, UniProt P20815); test: Reversible inhibition of CYP3A5 in human liver microsomes using midazolam as substrate incubated for 10 mins in presence of NADPH by LC-MS analysis; assay type: ADME
[4] = target: T1, Leukotriene A-4 hydrolase (Homo sapiens) (UniProt P09960); settings: Blood, time 19.0 hrs
T1 sequence (whole entry): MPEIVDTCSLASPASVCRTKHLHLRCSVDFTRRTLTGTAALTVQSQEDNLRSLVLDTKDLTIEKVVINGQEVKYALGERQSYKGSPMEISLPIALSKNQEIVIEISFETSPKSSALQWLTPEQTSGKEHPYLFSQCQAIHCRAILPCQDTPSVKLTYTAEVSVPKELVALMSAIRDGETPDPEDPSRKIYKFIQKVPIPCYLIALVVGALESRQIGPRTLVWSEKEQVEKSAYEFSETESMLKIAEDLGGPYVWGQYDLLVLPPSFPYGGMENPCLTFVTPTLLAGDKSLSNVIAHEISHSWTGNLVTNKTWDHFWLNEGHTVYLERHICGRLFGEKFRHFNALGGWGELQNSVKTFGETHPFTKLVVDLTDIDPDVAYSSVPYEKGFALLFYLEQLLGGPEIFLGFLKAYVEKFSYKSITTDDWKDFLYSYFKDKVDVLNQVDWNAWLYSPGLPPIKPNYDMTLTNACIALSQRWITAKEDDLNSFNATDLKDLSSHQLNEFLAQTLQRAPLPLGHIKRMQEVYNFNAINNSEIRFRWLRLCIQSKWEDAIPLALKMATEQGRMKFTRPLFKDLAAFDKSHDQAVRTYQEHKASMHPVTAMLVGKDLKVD

[5] = target: T1, Leukotriene A-4 hydrolase (Homo sapiens); settings: PBMC, time 6.0 hrs
[6] = target: T2, Leukotriene A-4 hydrolase (Homo sapiens, UniProt P09960); test: Inhibition of LTA4H in human whole blood assessed as reduction of calcium ionophore A23187-stimulated LTB4 generation preincubated for 4 hrs followed by ionophore stimulation and measured after 15 hrs by EIA assay; assay type: tissue-based
T2 sequence (P09960 whole entry): T1 sequence (whole entry)

[7] = target: T2, Leukotriene A-4 hydrolase; test: Inhibition of LTA4H in human PBMC assessed as reduction of calcium ionophore A23187-stimulated LTB4 generation preincubated for 4 hrs followed by ionophore stimulation and measured after 2 hrs by EIA assay; assay type: tissue-based
[8] = target: T2, Leukotriene A-4 hydrolase; test: (§1) Inhibition of recombinant full length N-terminal His6-tagged LTA4H (unknown origin) expressed in Escherichia coli BL21 DE3 cells at enzyme concentration <1 nM using Arg-AMC as substrate preincubated for 15 mins followed by substrate addition and measured every 10 mins for 300 mins by fluorescence based assay
[9] = Drug concentration in blood isolated from C57/BL6 mouse at 0.625 mg/kg, po BID for 3 days measured after 2 hrs post last dose; assay type: ADME, organism-based; settings: time 3 day, read-out: Ct
[10] = Drug concentration in blood isolated from C57/BL6 mouse at […], po BID for 3 days measured after 2 hrs post last dose; assay type: ADME, organism-based; settings: dose 2.5 mg/kg, time 3 day, read-out: Ct
[11] = Drug concentration in blood isolated from C57/BL6 mouse at 10 mg/kg, po BID for 3 days measured after 2 hrs post last dose; assay type: ADME, organism-based; settings: time 3 day, read-out: Ct
[12] = Drug concentration in plasma isolated from C57/BL6 mouse at 0.625 mg/kg, po BID for 3 days measured after 2 hrs post last dose; assay type: ADME, organism-based; settings: time 3 day
[13] = Drug concentration in plasma isolated from C57/BL6 mouse at […], po BID for 3 days measured after 2 hrs post last dose; assay type: ADME, organism-based; settings: dose 2.5 mg/kg, time 3 day
[14] = Drug concentration in plasma isolated from C57/BL6 mouse at 10 mg/kg, po BID for 3 days measured after 2 hrs post last dose; assay type: ADME, organism-based; settings: time 3 day
[15] = Drug concentration in blood isolated from C57/BL6 mouse at 0.625 mg/kg, po BID for 3 days measured after 14 hrs post last dose; assay type: ADME, organism-based; settings: time 3 day, read-out: Ct
[16] = Drug concentration in blood isolated from C57/BL6 mouse at […], po BID for 3 days measured after 14 hrs post last dose; assay type: ADME, organism-based; settings: dose 2.5 mg/kg, time 3 day, read-out: Ct
[17] = Drug concentration in blood isolated from C57/BL6 mouse at 10 mg/kg, po BID for 3 days measured after 14 hrs post last dose; assay type: ADME, organism-based; settings: time 3 day, read-out: Ct
[18] = Drug concentration in plasma isolated from C57/BL6 mouse at 0.625 mg/kg, po BID for 3 days measured after 14 hrs post last dose; assay type: ADME, organism-based; settings: time 3 day
[19] = Drug concentration in plasma isolated from C57/BL6 mouse at […], po BID for 3 days measured after 14 hrs post last dose; assay type: ADME, organism-based; settings: dose 2.5 mg/kg, time 3 day
[20] = Drug concentration in plasma isolated from C57/BL6 mouse at 10 mg/kg, po BID for 3 days measured after 14 hrs post last dose; assay type: ADME, organism-based; settings: time 3 day
[21] = target: T2, Leukotriene A-4 hydrolase; test: as §1, with “9” for “<1”
[22] = target: T1, Leukotriene A-4 hydrolase (Homo sapiens); settings: dose 125.0 µM, time 30.0 min
[23] = target: T1, Leukotriene A-4 hydrolase (Homo sapiens); settings: dose 250.0 µM, time 30.0 min
[24] = target: T1, Leukotriene A-4 hydrolase (Homo sapiens); settings: dose 500.0 µM, time 30.0 min
[25] = target: T1, Leukotriene A-4 hydrolase (Homo sapiens); settings: dose 1000.0 µM, time 30.0 min

Cytochrome P450 3A5, sequence (P20815 whole entry): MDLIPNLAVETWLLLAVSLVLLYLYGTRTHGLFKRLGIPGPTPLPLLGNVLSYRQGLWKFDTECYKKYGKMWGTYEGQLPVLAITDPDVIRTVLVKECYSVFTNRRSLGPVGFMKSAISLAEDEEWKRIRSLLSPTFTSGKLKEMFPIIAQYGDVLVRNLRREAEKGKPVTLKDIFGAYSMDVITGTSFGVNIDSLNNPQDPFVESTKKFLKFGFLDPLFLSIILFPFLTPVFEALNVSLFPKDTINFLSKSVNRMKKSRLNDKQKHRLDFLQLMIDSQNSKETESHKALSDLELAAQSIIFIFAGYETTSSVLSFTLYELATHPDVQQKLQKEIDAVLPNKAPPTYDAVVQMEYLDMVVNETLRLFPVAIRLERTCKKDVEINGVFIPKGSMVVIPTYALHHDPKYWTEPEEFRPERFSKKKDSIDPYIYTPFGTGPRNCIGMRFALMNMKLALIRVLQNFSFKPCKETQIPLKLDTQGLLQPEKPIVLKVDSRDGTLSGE
Voltage-gated inwardly rectifying potassium channel KCNH2, sequence (Q12809 whole entry): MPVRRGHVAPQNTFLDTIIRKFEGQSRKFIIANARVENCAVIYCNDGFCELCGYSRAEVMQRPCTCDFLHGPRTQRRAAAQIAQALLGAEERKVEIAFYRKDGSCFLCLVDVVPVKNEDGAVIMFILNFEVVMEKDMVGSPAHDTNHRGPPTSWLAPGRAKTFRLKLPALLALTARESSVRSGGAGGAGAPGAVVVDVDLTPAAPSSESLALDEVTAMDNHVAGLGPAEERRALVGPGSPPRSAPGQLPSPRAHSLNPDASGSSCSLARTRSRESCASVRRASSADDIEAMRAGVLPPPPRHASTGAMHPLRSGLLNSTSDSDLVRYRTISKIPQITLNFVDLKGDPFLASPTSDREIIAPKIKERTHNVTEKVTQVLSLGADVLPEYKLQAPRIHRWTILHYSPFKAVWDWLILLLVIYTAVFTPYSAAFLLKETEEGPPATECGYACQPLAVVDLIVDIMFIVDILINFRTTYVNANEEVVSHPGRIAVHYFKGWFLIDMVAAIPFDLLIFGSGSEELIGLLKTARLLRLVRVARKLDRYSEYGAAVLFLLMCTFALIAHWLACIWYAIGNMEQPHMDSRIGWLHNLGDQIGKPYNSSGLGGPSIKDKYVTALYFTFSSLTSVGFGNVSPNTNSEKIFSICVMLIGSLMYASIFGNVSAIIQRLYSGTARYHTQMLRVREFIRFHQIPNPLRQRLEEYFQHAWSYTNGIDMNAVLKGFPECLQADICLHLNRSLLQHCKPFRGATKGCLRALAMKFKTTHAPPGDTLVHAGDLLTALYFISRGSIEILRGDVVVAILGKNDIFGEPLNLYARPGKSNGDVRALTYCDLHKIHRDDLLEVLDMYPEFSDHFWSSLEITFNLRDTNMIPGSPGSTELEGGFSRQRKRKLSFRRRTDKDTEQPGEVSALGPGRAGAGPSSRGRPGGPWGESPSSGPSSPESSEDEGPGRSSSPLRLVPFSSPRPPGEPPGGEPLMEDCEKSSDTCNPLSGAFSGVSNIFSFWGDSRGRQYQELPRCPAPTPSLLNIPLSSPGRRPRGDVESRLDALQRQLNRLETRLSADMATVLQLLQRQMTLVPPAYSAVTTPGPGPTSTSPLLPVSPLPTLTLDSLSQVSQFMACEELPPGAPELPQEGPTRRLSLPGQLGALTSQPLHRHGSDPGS
Cytochrome P450 2C9, sequence (P11712 whole entry): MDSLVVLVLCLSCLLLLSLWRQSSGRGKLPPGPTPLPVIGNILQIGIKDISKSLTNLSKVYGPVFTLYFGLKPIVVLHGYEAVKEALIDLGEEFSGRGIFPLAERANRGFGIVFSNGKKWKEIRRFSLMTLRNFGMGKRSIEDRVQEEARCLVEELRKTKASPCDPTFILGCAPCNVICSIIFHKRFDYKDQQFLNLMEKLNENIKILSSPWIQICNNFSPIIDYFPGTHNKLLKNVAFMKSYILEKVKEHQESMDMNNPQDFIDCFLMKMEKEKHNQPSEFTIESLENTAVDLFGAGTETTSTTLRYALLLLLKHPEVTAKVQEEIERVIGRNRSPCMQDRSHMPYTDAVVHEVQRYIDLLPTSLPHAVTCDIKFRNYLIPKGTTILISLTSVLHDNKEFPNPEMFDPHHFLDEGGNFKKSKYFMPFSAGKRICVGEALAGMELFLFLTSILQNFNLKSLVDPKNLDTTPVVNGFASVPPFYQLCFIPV
Cytochrome P450 2D6, sequence (P10635 whole entry): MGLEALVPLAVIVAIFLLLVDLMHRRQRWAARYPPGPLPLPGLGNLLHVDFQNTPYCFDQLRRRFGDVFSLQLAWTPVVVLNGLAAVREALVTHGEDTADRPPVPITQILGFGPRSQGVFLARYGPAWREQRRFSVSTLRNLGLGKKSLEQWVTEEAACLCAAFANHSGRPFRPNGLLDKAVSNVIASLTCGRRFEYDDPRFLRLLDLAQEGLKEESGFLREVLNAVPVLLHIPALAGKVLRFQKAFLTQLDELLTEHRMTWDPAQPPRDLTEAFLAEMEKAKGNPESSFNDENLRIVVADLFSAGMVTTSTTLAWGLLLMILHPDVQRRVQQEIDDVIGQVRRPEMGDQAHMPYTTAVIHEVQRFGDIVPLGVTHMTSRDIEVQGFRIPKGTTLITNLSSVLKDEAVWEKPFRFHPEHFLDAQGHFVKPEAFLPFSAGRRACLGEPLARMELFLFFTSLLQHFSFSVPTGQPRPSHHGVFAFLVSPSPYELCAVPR

solubility [1]: 166 µM (≈ 61 µg/mL)
Compound: N[C@@H](CC(=O)O)Cn1nnc(-c2ccc(COCc3ccccc3)cc2)n1

solubility [1]: 65 µM (≈ 21.7 µg/mL)
Compound: CCCCCOc1ccc(-c2nnn(C[C@H](N)CC(=O)O)n2)cc1

half-life [2]: 190 min
solubility [1]: 26 µM (≈ 9.72 µg/mL)
Compound: N[C@@H](CC(=O)O)Cn1nnc(-c2ccc(Oc3ccc(Cl)cc3)cc2)n1

solubility [1]: 391 µM (≈ 149 µg/mL)
Compound: C[C@H](Cc1ccccc1)Oc1ccc(-c2nnn(C[C@@H](N)CC(=O)O)n2)cc1

solubility [1]: 135 µM (≈ 48.2 µg/mL)
Compound: N[C@H](CC(=O)O)Cn1nnc(-c2ccc(Oc3ccc(F)cc3)cc2)n1

solubility [1]: 23 µM (≈ 8.45 µg/mL)
Compound: N[C@H](CC(=O)O)Cn1nnc(-c2ccc(OCCc3ccccc3)cc2)n1

solubility [1]: > 1000 µM
Compound: COc1cnc(Oc2ccc(-c3nnn(C[C@H](N)CC(=O)O)n3)cc2)nc1

solubility [1]: 23 µM (≈ 9.12 µg/mL)
Compound: N[C@H](CC(=O)O)Cn1nnc(-c2ccc(Oc3nc4ccccc4s3)cc2)n1

solubility [1]: 398 µM (≈ 156 µg/mL)
Compound: N[C@H](CC(=O)O)Cn1nnc(-c2ccc(Oc3ncc(Cl)cc3F)cc2)n1

solubility [1]: 17 µM (≈ 6.91 µg/mL)
Compound: N[C@H](CC(=O)O)Cn1nnc(-c2ccc(Oc3ccc(-c4ncco4)cc3)cc2)n1

half-life [2]: 240 min
solubility [1]: 28 µM (≈ 10.5 µg/mL)
Compound: N[C@H](CC(=O)O)Cn1nnc(-c2ccc(Oc3ccc(Cl)cc3)cc2)n1

solubility [1]: 35 µM (≈ 13.9 µg/mL)
Compound: N[C@@H](CC(=O)O)Cn1nnc(-c2ccc(Oc3nc4ccccc4s3)cc2)n1

solubility [1]: 344 µM (≈ 129 µg/mL)
Compound: N[C@H](CC(=O)O)Cn1nnc(-c2ccc(Oc3ccc(Cl)cn3)cc2)n1

Continued, molecule first:

Compound: CC(=O)NCCn1nnc(-c2ccc(Oc3ccc(Cl)cc3)cc2)n1
half-life [2]: > 55 min
IC50 [3]: > 30 µM
IC50 (Cytochrome P450 2C9): > 20 µM
IC50 (Cytochrome P450 2D6): > 20 µM
IC50 (Cytochrome P450 3A5): > 20 µM

Compound: O=C(O)CCCN1CCC[C@H]1COc1ccc(Oc2ccc(Cl)cc2)cc1
IC90 [4]: 5.05 µM
IC90 [5]: 1.07 µM

Compound: C[C@@H](N)Cn1nnc(-c2ccc(Oc3ccc(Cl)cc3)cc2)n1
half-life [2]: 33 min
IC50 [3]: > 30 µM
IC50 (Cytochrome P450 2C9): > 20 µM
IC50 (Cytochrome P450 2D6): > 20 µM
IC50 (Cytochrome P450 3A5): > 20 µM

Compound: O=C(O)CCCn1nnc(-c2ccc(Oc3ccc(Cl)cc3)cc2)n1
half-life [2]: 405 min
IC50 [3]: > 30 µM
IC50 (Cytochrome P450 2C9): > 20 µM
IC50 (Cytochrome P450 2D6): > 20 µM
IC50 (Cytochrome P450 3A5): > 20 µM

Compound: O=C(O)CCn1nnc(-c2ccc(Oc3ccc(Cl)cc3)cc2)n1
half-life [2]: 114 min
IC50 [3]: > 30 µM
IC50 (Cytochrome P450 2C9): > 20 µM
IC50 (Cytochrome P450 2D6): > 20 µM
IC50 (Cytochrome P450 3A5): > 20 µM

Compound: NCCn1nnc(-c2ccc(Oc3ccc(Cl)cc3)cc2)n1
half-life [2]: 15 min

Compound: N[C@@H](Cn1nnc(-c2ccc(Oc3ccc(Cl)cc3)cc2)n1)C(=O)O
half-life [2]: > 55 min

Compound: CC(=O)N[C@H]1C[C@H]2CC[C@@H](C1)N2Cc1ccc(Oc2nc3ncccc3s2)cc1
IC50 [6]: 0.048 µM
IC50 [7]: 0.018 µM
IC50 [8]: 0.0019 µM
IC90 [4]: 0.104 µM
IC90 [5]: 0.092 µM

Compound: O=C(O)c1ccc(CN2C[C@@H]3C[C@H]2CN3Cc2ccc(Oc3ccc(-c4ncco4)cc3)cc2)cc1 [ACEBILUSTAT]
IC50 [6]: 0.142 µM
IC50 [7]: 0.024 µM
IC50 [8]: 0.0049 µM
concentration at 72 h [9]: 488 nM
concentration at 72 h [10]: 1860 nM
concentration at 72 h [11]: 7620 nM
concentration at 72 h [12]: 597 nM
concentration at 72 h [13]: 3820 nM
concentration at 72 h [14]: 14600 nM
concentration at 72 h [15]: 32 nM
concentration at 72 h [16]: 166 nM
concentration at 72 h [17]: 554 nM
concentration at 72 h [18]: 9 nM
concentration at 72 h [19]: 94 nM
concentration at 72 h [20]: 826 nM
IC90 [4]: 0.728 µM
IC90 [5]: 0.181 µM

Compound: OCc1ccc(Oc2ccccc2)cc1
IC50 [21]: 4.5 µM
ΔTm [22]: 0.08 °C
ΔTm [23]: 0.2 °C
ΔTm [24]: 0.2 °C
ΔTm [25]: 0.3 °C

Compound: NCCCn1nnc(-c2ccc(Oc3ccc(Cl)cc3)cc2)n1
half-life [2]: 30 min
IC50 [3]: 4.8 µM
IC50 (Cytochrome P450 2C9): > 20 µM
IC50 (Cytochrome P450 2D6): > 20 µM
IC50 (Cytochrome P450 3A5): > 20 µM

Compound: C[C@H](CN)n1nnc(-c2ccc(Oc3ccc(Cl)cc3)cc2)n1
half-life [2]: 15 min
IC50 [3]: > 30 µM
IC50 (Cytochrome P450 2C9): 2 µM
IC50 (Cytochrome P450 2D6): 11 µM
IC50 (Cytochrome P450 3A5): > 20 µM

Compound: O=C(O)CNCCn1nnc(-c2ccc(Oc3ccc(Cl)cc3)cc2)n1
half-life [2]: 142 min

Compound: Cc1ccc(Oc2ccc(-c3nnn(CCN)n3)cc2)cc1
half-life [2]: 5 min
IC50 [3]: 5.8 µM
IC50 (Cytochrome P450 2C9): 1.4 µM
IC50 (Cytochrome P450 2D6): 14 µM
IC50 (Cytochrome P450 3A5): > 20 µM
